Experimental data: paper PMC7083837 (Nature Communications, 2020)
Values joined by “and” are separate entries in the source; they are usually repeats but may differ in a detail not shown here. Equal entries are not always repeated.

Tests used:
SERT WT = molecular target: T1, SERT WT (Homo sapiens, UniProt P31645); assay: [3H]S-CIT competition (equilibrium) binding on COS-7 membranes;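 also: transiently transfected cell membranes incubated 1 h at room temperature with 5–10 nM [3H]S-CIT, nonspecific binding defined using 5 µM paroxetine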
T1 construct: expressed in transfected cells; host or cells: COS-7
T1 sequence (P31645 whole entry): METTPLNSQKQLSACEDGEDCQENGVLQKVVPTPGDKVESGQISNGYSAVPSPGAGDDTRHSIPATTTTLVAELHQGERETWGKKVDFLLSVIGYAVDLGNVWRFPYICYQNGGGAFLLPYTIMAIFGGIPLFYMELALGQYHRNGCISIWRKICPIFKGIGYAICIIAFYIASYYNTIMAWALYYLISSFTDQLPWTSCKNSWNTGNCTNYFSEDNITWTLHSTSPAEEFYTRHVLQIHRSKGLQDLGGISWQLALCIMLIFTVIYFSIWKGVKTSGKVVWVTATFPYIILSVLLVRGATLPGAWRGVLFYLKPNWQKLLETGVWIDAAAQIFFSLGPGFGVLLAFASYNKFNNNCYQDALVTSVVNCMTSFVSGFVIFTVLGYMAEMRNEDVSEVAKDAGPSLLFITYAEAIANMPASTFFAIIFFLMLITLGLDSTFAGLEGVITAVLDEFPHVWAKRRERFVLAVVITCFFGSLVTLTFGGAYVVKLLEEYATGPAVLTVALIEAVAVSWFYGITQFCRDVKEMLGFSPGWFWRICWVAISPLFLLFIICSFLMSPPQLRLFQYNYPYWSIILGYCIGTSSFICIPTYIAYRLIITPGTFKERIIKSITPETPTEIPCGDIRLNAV

SERT A331D = molecular target: T2, SERT A331D (Homo sapiens, UniProt P31645, A331D); assay: [3H]IMI dissociation rate assay; assay type: binding
T2 construct: expressed in transfected cells; host or cells: COS-7
T2 sequence (P31645 whole entry A331D): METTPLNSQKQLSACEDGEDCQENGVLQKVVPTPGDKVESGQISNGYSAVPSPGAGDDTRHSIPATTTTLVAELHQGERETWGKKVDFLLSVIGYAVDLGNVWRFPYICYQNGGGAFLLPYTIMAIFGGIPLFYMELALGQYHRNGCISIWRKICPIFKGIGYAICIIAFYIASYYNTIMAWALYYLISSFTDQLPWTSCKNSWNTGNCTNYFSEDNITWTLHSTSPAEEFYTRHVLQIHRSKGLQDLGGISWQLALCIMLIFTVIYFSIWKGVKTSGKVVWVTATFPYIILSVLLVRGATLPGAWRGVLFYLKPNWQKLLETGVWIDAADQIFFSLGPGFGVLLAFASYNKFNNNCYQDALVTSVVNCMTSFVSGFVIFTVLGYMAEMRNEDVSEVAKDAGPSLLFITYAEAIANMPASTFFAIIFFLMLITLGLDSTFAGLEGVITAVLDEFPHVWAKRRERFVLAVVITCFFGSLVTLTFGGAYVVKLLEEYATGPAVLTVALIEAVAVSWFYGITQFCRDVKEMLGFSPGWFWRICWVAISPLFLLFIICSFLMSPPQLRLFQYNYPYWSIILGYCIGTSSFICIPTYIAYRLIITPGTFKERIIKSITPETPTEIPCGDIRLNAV
Description: (§1) All mutations were confirmed by DNA sequencing. The used primers were
(§2) The allosteric potency was calculated as previously described.

SERT A486E = molecular target: T3, SERT A486E (Homo sapiens, UniProt P31645, A486E); assay: [3H]IMI dissociation rate assay; assay type: binding
T3 construct: expressed in transfected cells; host or cells: COS-7
Description: as §1, §2

SERT A486E-K490A = molecular target: T4, SERT A486E-K490A (Homo sapiens, UniProt P31645, A486E/K490A); assay: [3H]IMI dissociation rate assay; assay type: binding
T4 construct: expressed in transfected cells; host or cells: COS-7
T4 sequence (P31645 whole entry A486E/K490A): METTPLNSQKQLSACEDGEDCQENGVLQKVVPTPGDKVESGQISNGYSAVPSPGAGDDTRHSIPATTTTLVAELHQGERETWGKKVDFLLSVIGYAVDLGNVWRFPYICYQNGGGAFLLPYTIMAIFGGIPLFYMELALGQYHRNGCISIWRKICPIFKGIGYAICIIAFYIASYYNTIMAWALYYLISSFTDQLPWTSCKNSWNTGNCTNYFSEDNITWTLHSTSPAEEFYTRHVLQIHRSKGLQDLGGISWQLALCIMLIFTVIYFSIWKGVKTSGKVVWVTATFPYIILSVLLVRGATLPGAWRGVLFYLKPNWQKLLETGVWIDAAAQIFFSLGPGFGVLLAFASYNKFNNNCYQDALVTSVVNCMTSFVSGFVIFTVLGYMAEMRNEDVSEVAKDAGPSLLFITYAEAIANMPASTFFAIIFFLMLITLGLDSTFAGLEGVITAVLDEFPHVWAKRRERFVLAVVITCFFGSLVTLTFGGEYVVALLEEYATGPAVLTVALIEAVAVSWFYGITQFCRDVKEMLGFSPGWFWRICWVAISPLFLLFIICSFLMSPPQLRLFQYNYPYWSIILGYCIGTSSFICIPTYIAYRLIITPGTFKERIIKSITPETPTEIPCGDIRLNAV
Description: as §1, §2

SERT D328N = molecular target: T5, SERT D328N (Homo sapiens, UniProt P31645, D328N); assay: [3H]IMI dissociation rate assay; assay type: binding
T5 construct: expressed in transfected cells; host or cells: COS-7
T5 sequence (P31645 whole entry D328N): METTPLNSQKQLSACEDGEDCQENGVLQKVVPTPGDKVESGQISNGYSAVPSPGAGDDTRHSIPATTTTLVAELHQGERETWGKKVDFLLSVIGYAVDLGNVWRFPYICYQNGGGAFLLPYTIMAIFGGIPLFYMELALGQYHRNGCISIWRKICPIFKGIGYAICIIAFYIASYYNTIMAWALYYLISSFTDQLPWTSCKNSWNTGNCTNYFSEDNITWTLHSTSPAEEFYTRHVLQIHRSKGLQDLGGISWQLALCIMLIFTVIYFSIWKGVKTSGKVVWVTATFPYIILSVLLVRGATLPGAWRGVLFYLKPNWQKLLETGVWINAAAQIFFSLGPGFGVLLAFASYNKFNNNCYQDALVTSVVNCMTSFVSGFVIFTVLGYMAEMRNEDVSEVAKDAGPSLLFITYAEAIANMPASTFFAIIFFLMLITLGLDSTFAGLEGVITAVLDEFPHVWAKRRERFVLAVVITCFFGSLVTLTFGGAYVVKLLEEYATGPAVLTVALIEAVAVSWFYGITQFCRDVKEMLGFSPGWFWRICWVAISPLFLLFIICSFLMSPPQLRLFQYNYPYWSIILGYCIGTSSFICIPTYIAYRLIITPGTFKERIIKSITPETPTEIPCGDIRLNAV
Description: as §1, §2

SERT E494K = molecular target: T6, SERT E494K (Homo sapiens, UniProt P31645, E494K); assay: [3H]IMI dissociation rate assay; assay type: binding
T6 construct: expressed in transfected cells; host or cells: COS-7
T6 sequence (P31645 whole entry E494K): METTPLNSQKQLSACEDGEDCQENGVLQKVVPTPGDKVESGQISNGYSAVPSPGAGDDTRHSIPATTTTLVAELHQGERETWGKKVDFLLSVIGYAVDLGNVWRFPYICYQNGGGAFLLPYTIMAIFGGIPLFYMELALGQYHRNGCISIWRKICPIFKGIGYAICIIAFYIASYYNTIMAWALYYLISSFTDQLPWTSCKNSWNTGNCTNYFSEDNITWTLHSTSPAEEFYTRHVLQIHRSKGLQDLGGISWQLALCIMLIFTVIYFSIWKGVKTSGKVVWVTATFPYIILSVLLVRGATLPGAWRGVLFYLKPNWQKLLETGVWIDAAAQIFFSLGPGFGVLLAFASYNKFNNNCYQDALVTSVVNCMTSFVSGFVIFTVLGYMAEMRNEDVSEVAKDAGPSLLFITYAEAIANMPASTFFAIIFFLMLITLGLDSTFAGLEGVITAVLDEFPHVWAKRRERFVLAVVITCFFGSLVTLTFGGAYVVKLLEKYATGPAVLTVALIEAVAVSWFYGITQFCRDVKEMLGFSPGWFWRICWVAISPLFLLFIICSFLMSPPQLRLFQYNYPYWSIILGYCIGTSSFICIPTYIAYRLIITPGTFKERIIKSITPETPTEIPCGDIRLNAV
Description: as §1, §2

SERT F556L = molecular target: T7, SERT F556L (Homo sapiens, UniProt P31645, F556L); assay: [3H]IMI dissociation rate assay; assay type: binding
T7 construct: expressed in transfected cells; host or cells: COS-7
Description: as §1, §2

SERT F556R = molecular target: T8, SERT F556R (Homo sapiens, UniProt P31645, F556R); assay: [3H]IMI dissociation rate assay; assay type: binding
T8 construct: expressed in transfected cells; host or cells: COS-7
T8 sequence (P31645 whole entry F556R): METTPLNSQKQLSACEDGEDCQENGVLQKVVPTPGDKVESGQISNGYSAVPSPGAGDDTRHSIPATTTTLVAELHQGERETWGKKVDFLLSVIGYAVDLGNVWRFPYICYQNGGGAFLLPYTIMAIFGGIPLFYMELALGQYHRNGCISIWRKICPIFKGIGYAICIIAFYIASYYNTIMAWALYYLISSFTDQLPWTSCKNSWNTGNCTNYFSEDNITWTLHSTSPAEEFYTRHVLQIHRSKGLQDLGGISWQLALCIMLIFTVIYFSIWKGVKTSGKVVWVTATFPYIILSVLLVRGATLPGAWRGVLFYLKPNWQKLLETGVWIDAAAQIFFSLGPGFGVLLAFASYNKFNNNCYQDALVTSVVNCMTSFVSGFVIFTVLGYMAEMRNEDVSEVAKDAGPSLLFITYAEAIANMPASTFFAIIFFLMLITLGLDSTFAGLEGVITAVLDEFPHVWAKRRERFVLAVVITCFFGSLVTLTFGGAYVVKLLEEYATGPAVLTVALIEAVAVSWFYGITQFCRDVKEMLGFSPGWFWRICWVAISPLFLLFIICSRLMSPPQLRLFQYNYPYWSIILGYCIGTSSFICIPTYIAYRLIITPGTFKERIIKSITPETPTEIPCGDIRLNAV
Description: as §1, §2

SERT I179F = molecular target: T9, SERT I179F (Homo sapiens, UniProt P31645, I179F); assay: [3H]IMI dissociation rate assay; assay type: binding
T9 construct: expressed in transfected cells; host or cells: COS-7
T9 sequence (P31645 whole entry I179F): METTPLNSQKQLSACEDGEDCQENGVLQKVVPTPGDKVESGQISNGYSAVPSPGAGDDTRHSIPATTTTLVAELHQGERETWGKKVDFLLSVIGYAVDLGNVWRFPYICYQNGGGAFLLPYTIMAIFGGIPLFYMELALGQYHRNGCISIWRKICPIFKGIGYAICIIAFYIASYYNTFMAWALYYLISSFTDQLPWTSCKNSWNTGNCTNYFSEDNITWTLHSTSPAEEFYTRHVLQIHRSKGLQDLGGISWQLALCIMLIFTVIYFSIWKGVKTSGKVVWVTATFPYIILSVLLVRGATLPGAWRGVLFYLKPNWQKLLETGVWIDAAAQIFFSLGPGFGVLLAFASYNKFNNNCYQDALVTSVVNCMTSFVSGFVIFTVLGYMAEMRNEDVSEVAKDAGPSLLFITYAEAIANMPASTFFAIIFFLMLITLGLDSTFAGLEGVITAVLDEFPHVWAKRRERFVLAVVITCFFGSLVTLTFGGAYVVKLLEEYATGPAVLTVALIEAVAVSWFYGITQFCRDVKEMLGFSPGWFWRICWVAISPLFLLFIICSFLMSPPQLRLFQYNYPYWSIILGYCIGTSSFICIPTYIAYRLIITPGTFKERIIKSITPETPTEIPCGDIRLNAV
Description: as §1, §2

SERT L406E = molecular target: T10, SERT L406E (Homo sapiens, UniProt P31645, L406E); assay: [3H]IMI dissociation rate assay; assay type: binding; details: L406E
T10 construct: expressed in transfected cells; host or cells: COS-7
T10 sequence (P31645 whole entry L406E): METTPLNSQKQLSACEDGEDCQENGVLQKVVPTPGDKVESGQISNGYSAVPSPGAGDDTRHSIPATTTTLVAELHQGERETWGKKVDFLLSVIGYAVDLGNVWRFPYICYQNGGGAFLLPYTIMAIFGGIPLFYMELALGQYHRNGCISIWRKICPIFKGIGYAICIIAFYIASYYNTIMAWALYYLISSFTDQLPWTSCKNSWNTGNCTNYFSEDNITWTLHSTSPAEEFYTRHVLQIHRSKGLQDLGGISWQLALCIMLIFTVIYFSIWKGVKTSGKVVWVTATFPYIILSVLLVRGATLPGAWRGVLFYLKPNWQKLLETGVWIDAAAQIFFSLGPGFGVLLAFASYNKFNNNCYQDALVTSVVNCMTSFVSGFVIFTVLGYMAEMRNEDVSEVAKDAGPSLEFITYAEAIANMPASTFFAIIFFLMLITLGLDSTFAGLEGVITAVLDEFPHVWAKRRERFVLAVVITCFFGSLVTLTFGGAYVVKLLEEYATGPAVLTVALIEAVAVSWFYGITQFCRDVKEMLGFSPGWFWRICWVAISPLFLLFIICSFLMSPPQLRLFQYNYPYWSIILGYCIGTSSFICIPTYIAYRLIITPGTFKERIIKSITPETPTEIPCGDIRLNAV
Description: as §1, §2

IC50 (SERT WT; COS-7 membranes, SERT WT, read-out: Inhibition of [^3H]S-CIT binding (IC50)): 270 nM | Displacement of [3H]S-CIT binding (normalized bound, Fig S6) (SERT WT; log[Lu AF60097] -4.9586): 0.02221 and 0.02599 | Displacement of [3H]S-CIT binding (normalized bound, Fig S6) (SERT WT; log[Lu AF60097] -6.4638): 0.4362 and 0.4819 and 0.2888 | Displacement of [3H]S-CIT binding (normalized bound, Fig S6) (SERT WT; log[Lu AF60097] -6.7648): 0.6201 and 0.6384 and 0.4362 | Displacement of [3H]S-CIT binding (normalized bound, Fig S6) (SERT WT; log[Lu AF60097] -7.0658): 0.7487 and 0.8379 and 0.6201 | Displacement of [3H]S-CIT binding (normalized bound, Fig S6) (SERT WT; log[Lu AF60097] -7.3668): 0.8096 and 1.0297 and 0.7487 | Displacement of [3H]S-CIT binding (normalized bound, Fig S6) (SERT WT; log[Lu AF60097] -7.6679): 0.9347 and 1.009 and 0.8096 | Displacement of [3H]S-CIT binding (normalized bound, Fig S6) (SERT WT; log[Lu AF60097] -7.8213): 0.9058 | Displacement of [3H]S-CIT binding (normalized bound, Fig S6) (SERT WT; log[Lu AF60097] -8.2985): 0.9777 and 0.9058 | Displacement of [3H]S-CIT binding (normalized bound, Fig S6) (SERT WT; log[Lu AF60097] -9): 0.999 and 0.9777 | ΔAP (mut/WT), change in allosteric potency relative to SERT WT (SERT A331D; A331D, [^3H]IMI dissociation): 293 | [^3H]IMI dissociation relative to control (source data Fig 4B) (SERT A331D; A331D, log conc -4.478): 0.2078 and 0.1902 and 0.1898 | [^3H]IMI dissociation relative to control (source data Fig 4B) (SERT A331D; A331D, log conc -4.955): 0.4404 and 0.4549 and 0.4274 | [^3H]IMI dissociation relative to control (source data Fig 4B) (SERT A331D; A331D, log conc -5.432): 0.7451 and 0.6969 and 0.749 | [^3H]IMI dissociation relative to control (source data Fig 4B) (SERT A331D; A331D, log conc -5.91): 0.8665 and 0.8882 and 0.9518 | [^3H]IMI dissociation relative to control (source data Fig 4B) (SERT A331D; A331D, log conc -6.386): 0.9951 and 1.0052 and 1.0336 | [^3H]IMI dissociation relative to control (source data Fig 4B) (SERT A331D; A331D, log conc -6.863): 1.0294 and 1.1129 and 0.9351 | [^3H]IMI dissociation relative to control (source data Fig 4B) (SERT A331D; A331D, log conc -7.34): 0.9855 and 0.9441 and 1.0485 | IC50 (SERT A331D; SERT A331D (TM6), read-out: Lu AF60097 allosteric potency ([^3H]IMI dissociation IC50)): 9100 nM | ΔAP (mut/WT), change in allosteric potency relative to SERT WT (SERT A486E; A486E, [^3H]IMI dissociation): 15 | IC50 (SERT A486E; SERT A486E (TM10), read-out: Lu AF60097 allosteric potency ([^3H]IMI dissociation IC50)): 470 nM | ΔAP (mut/WT), change in allosteric potency relative to SERT WT (SERT A486E-K490A; A486E-K490A, [^3H]IMI dissociation): 77 | [^3H]IMI dissociation relative to control (source data Fig 4B) (SERT A486E-K490A; A486E-K490A, log conc -4.955): 0.2089 and 0.1837 and 0.2062 | [^3H]IMI dissociation relative to control (source data Fig 4B) (SERT A486E-K490A; A486E-K490A, log conc -5.432): 0.4714 and 0.3471 and 0.3282 | [^3H]IMI dissociation relative to control (source data Fig 4B) (SERT A486E-K490A; A486E-K490A, log conc -5.91): 0.664 and 0.6181 and 0.6285 | [^3H]IMI dissociation relative to control (source data Fig 4B) (SERT A486E-K490A; A486E-K490A, log conc -6.386): 0.93 and 0.8402 and 0.7554 | [^3H]IMI dissociation relative to control (source data Fig 4B) (SERT A486E-K490A; A486E-K490A, log conc -6.863): 1.01 and 0.967 and 0.9554 | [^3H]IMI dissociation relative to control (source data Fig 4B) (SERT A486E-K490A; A486E-K490A, log conc -7.34): 1 and 1.03 and 0.8514 | [^3H]IMI dissociation relative to control (source data Fig 4B) (SERT A486E-K490A; A486E-K490A, log conc -7.817): 1.04 and 0.999 and 0.8949 | IC50 (SERT A486E-K490A; SERT A486E-K490A, read-out: Lu AF60097 allosteric potency ([^3H]IMI dissociation IC50)): 2400 nM | ΔAP (mut/WT), change in allosteric potency relative to SERT WT (SERT D328N; D328N, [^3H]IMI dissociation): 1.7 | IC50 (SERT D328N; SERT D328N (TM6), read-out: Lu AF60097 allosteric potency ([^3H]IMI dissociation IC50)): 54 nM | ΔAP (mut/WT), change in allosteric potency relative to SERT WT (SERT E494K; E494K, [^3H]IMI dissociation): 286 | [^3H]IMI dissociation relative to control (source data Fig 4B) (SERT E494K; E494K, log conc -5.432): 0.0801 and 0.1174 and 0.0764 | [^3H]IMI dissociation relative to control (source data Fig 4B) (SERT E494K; E494K, log conc -5.91): 0.1958 and 0.2217 and 0.1263 | [^3H]IMI dissociation relative to control (source data Fig 4B) (SERT E494K; E494K, log conc -6.386): 0.3078 and 0.3762 and 0.3174 | [^3H]IMI dissociation relative to control (source data Fig 4B) (SERT E494K; E494K, log conc -6.863): 0.5705 and 0.5743 and 0.4488 | [^3H]IMI dissociation relative to control (source data Fig 4B) (SERT E494K; E494K, log conc -7.34): 0.7153 and 0.7476 and 0.7791 | [^3H]IMI dissociation relative to control (source data Fig 4B) (SERT E494K; E494K, log conc -7.817): 0.8258 and 0.83 and 0.9008 | [^3H]IMI dissociation relative to control (source data Fig 4B) (SERT E494K; E494K, log conc -8.294): 0.8606 and 0.9262 and 0.8913 | IC50 (SERT E494K; SERT E494K (TM10), read-out: Lu AF60097 allosteric potency ([^3H]IMI dissociation IC50)): 8900 nM | ΔAP (mut/WT), change in allosteric potency relative to SERT WT (SERT F556L; F556L, [^3H]IMI dissociation): 10 | IC50 (SERT F556L; SERT F556L (TM11), read-out: Lu AF60097 allosteric potency ([^3H]IMI dissociation IC50)): 330 nM | ΔAP (mut/WT), change in allosteric potency relative to SERT WT (SERT F556R; F556R, [^3H]IMI dissociation): >300 | IC50 (SERT F556R; SERT F556R (TM11), read-out: Lu AF60097 allosteric potency ([^3H]IMI dissociation IC50)): ≥ 10000 nM | ΔAP (mut/WT), change in allosteric potency relative to SERT WT (SERT I179F; I179F, [^3H]IMI dissociation): 14 | [^3H]IMI dissociation relative to control (source data Fig 4B) (SERT I179F; I179F, log conc -7.817): 0.8727 and 0.9098 | IC50 (SERT I179F; SERT I179F (TM3), read-out: Lu AF60097 allosteric potency ([^3H]IMI dissociation IC50)): 440 nM | ΔAP (mut/WT), change in allosteric potency relative to SERT WT (SERT L406E; [^3H]IMI dissociation): 21 | [^3H]IMI dissociation relative to control (source data Fig 4B) (SERT L406E; log conc -5.91): 0.3505 and 0.3638 and 0.3072
SMILES: NC(=O)c1ccc2c(c1)CO[C@@]2(CCCN1CCC(c2ccc3ccc(=O)[nH]c3c2)CC1)c1ccc(F)cc1 [Lu AF60097, (S)-1-(4-fluorophenyl)-1-(3-(4-(2-oxo-1,2-dihydroquinolin-7-yl)piperidin-1-yl)propyl)-1,3-dihydroisobenzofuran-5-carboxamide]
Lu AF60097 allosteric potency ([^3H]IMI dissociation IC50) (SERT F556R; SERT F556R (TM11)): complete ablation of the allosteric potency
